According to ChEMBL document CHEMBL1136420, “Comparison of library screening techniques used in the development of dsDNA ligands” (Bioorg Med Chem Lett, 2003):
Numbered stars: 1 amine (or outer) side, 2 acyl side, 3 side chain; on linkers, the order of the positions; unused ones are H or OH. Square brackets hold non-standard residues; d marks the D form. Peptide text beside a SMILES is read from it. Ala(2,4-dioxoquinazolin-3-yl) = N[C@@H](Cn1c(=O)[nH]c2ccccc2c1=O)C(=O)O; Ala(uracil-1-yl) = N[C@@H](Cn1ccc(=O)[nH]c1=O)C(=O)O; X2 = Cc1cn(C[C@H](N[*:1])C(=O)[*:2])c(=O)[nH]c1=O; X3 = Nc1ccn(C[C@H](N[*:1])C(=O)[*:2])c(=O)n1; X1 = Nc1ncnc2c1ncn2C[C@H](N[*:1])C(=O)[*:2]; 2Thi = N[C@@H](Cc1cccs1)C(=O)O; Sar = CNCC(=O)O

molecular target: Nucleic Acid; experiment: Dissociation constant using ethidium-bromide displacement test; type: nucleic-acid assay

SMILES | Kd [µM]
CC(=O)N[C@@H](CCCN=C(N)N)C(=O)N[C@@H](Cn1ccc(=O)[nH]c1=O)C(=O)N(C)CC(=O)N[C@@H](Cn1c(=O)[nH]c2ccccc2c1=O)C(=O)N[C@@H](Cn1c(=O)[nH]c2ccccc2c1=O)C(=O)N[C@@H](Cc1cccs1)C(=O)N[C@@H](CCCN=C(N)N)C(N)=O (Ac-R[Ala(uracil-1-yl)][Sar][Ala(2,4-dioxoquinazolin-3-yl)][Ala(2,4-dioxoquinazolin-3-yl)][2Thi]R-NH2) | 230
CC(=O)N[C@@H](CCCN=C(N)N)C(=O)N[C@@H](Cn1ccc(=O)[nH]c1=O)C(=O)N(C)CC(=O)N[C@@H](Cn1c(=O)[nH]c2ccccc2c1=O)C(=O)N[C@@H](Cn1c(=O)[nH]c2ccccc2c1=O)C(=O)N[C@@H](Cn1c(=O)[nH]c2ccccc2c1=O)C(=O)N[C@@H](CCCN=C(N)N)C(N)=O (Ac-R[Ala(uracil-1-yl)][Sar][Ala(2,4-dioxoquinazolin-3-yl)][Ala(2,4-dioxoquinazolin-3-yl)][Ala(2,4-dioxoquinazolin-3-yl)]R-NH2) | 91
CC(=O)N[C@@H](CCCN=C(N)N)C(=O)N[C@@H](Cn1ccc(=O)[nH]c1=O)C(=O)N(C)CC(=O)N[C@@H](Cn1c(=O)[nH]c2ccccc2c1=O)C(=O)N[C@@H](Cn1c(=O)[nH]c2ccccc2c1=O)C(=O)N[C@@H](Cn1ccc(=O)[nH]c1=O)C(=O)N[C@@H](CCCN=C(N)N)C(N)=O (Ac-R[Ala(uracil-1-yl)][Sar][Ala(2,4-dioxoquinazolin-3-yl)][Ala(2,4-dioxoquinazolin-3-yl)][Ala(uracil-1-yl)]R-NH2) | 610
CC(=O)N[C@@H](CCCN=C(N)N)C(=O)N[C@@H](Cn1ccc(=O)[nH]c1=O)C(=O)N(C)CC(=O)N[C@@H](Cn1c(=O)[nH]c2ccccc2c1=O)C(=O)N[C@@H](Cn1c(=O)[nH]c2ccccc2c1=O)C(=O)N[C@@H](Cn1cnc2c(N)ncnc21)C(=O)N[C@@H](CCCN=C(N)N)C(N)=O (Ac-R[Ala(uracil-1-yl)][Sar][Ala(2,4-dioxoquinazolin-3-yl)][Ala(2,4-dioxoquinazolin-3-yl)][X1]R-NH2) | 390
CC(=O)N[C@@H](CCCN=C(N)N)C(=O)N[C@@H](Cn1ccc(=O)[nH]c1=O)C(=O)N(C)CC(=O)N[C@@H](Cn1c(=O)[nH]c2ccccc2c1=O)C(=O)N[C@@H](Cn1c(=O)[nH]c2ccccc2c1=O)C(=O)N[C@@H](Cn1cc(C)c(=O)[nH]c1=O)C(=O)N[C@@H](CCCN=C(N)N)C(N)=O (Ac-R[Ala(uracil-1-yl)][Sar][Ala(2,4-dioxoquinazolin-3-yl)][Ala(2,4-dioxoquinazolin-3-yl)][X2]R-NH2) | 490
CC(=O)N[C@@H](CCCN=C(N)N)C(=O)N[C@@H](Cn1ccc(=O)[nH]c1=O)C(=O)N(C)CC(=O)N[C@@H](Cn1c(=O)[nH]c2ccccc2c1=O)C(=O)N[C@@H](Cn1c(=O)[nH]c2ccccc2c1=O)C(=O)N[C@@H](Cn1ccc(N)nc1=O)C(=O)N[C@@H](CCCN=C(N)N)C(N)=O (Ac-R[Ala(uracil-1-yl)][Sar][Ala(2,4-dioxoquinazolin-3-yl)][Ala(2,4-dioxoquinazolin-3-yl)][X3]R-NH2) | 630
CC(=O)N[C@@H](CCCN=C(N)N)C(=O)N[C@@H](Cn1ccc(=O)[nH]c1=O)C(=O)N(C)CC(=O)N[C@@H](Cn1cc(C)c(=O)[nH]c1=O)C(=O)N[C@@H](Cn1c(=O)[nH]c2ccccc2c1=O)C(=O)N[C@@H](Cn1cnc2c(N)ncnc21)C(=O)N[C@@H](CCCN=C(N)N)C(N)=O (Ac-R[Ala(uracil-1-yl)][Sar][X2][Ala(2,4-dioxoquinazolin-3-yl)][X1]R-NH2) | 220
